Measured values as given in EP4640686A1, “DEGRADER FOR DEGRADING BRD PROTEIN AND PHARMACEUTICAL COMPOSITION CONTAINING SAME” (Innocure Therapeutics, Inc., priority 2022, dated 2024).
Where two headings read alike, the source gives them in different places.

Experiments:
Assay type in all cases: cell-based
[1] = molecular target: T1, BRD4-NUT (Homo sapiens, UniProt O60885+Q86Y26); assay: BRD4-NUT protein degradation by western blotting in RPMI2650 cells (24 h treatment)
T1 construct: endogenous in cells; host or cells: RPMI2650
Procedure: (§1) The synthesized compounds were prepared with a 10 mM or 50 mM raw material solution dissolved in DMSO [dimethyl sulfoxide], and were diluted sequentially and treated. [RPMI2650] and [SNU2972] were cultivated under specific conditions.
(§2) To evaluate the resolution of PROTAC for BRD4 expressed in cells, cells were dispensed in a concentration of 5 X 10^5 cells/well in a 6-well plate, and the sample was treated for 24 hours. […] Protein expression was normalized based on the expression value of β or GAPDH, and protein expression in each sample was measured as % based on 100% of samples treated with 0.1% DMSO vehicle. Protein expression was quantified using Image J program. Change in protein expression volume by compound treatment (DC50: concentration of compounds where 50% protein expression inhibition is achieved) was calculated using the GraphicPad Prism 8.0 software.

[2] = molecular target: BRD4 (Homo sapiens, UniProt O60885); assay: BRD4 protein degradation by western blotting in RPMI2650 cells (24 h treatment); design: To evaluate the resolution of PROTAC for BRD4 expressed in cells; endogenous in cells; host or cells: RPMI2650
Procedure: as §1, §2

[3] = tested on: RPMI2650; assay: Cancer cell antiproliferative activity / cell viability in RPMI2650 cells (72 h treatment)
Procedure: The human breast cancer cell line [MDA-MB-231] was cultured in RPMI medium with the addition of 10% fetal bovine serum, penicillin [100U/ml], and streptomycin [[…]]. The synthesized compounds were prepared with a 10 mM or 50 mM raw material solution dissolved in DMSO [dimethyl sulfoxide], and were diluted sequentially and treated. [RPMI2650] and [SNU2972] were cultivated under specific conditions.
To observe cell growth inhibition, cells were dispensed in a concentration of 5,000 cells/well in a 96-well plate, and samples prepared at various concentrations were treated for 72 hours. The IC50 value (the concentration of the compound achieving 50% cytostaticism) is the average value of the results of three independent measurements.

[4] = read-out: BRD4-NUT (DC50), RPMI2650
[5] = read-out: BR04 (DC50), RPMI2650
[6] = Homo sapiens, RPMI-2650, RPMI2650, read-out: BRD4 (IC50)
[7] = RPM12650, read-out: BRD4-NUT (DC50)
[8] = RPM12650, read-out: BRD4 (DC50)
[9] = Homo sapiens, RPMI-2650, RPM12650, read-out: Cell Viatility (IC50)

Row | Structure (SMILES) | DC50 [1, 4] [nM] | DC50 [2, 5] [nM] | IC50 [3, 6] [nM] | DC50 ([1]; RPMI2650, read-out: BRD4-NUT (DC50)) [nM] | DC50 [1, 7] [nM] | DC50 [2, 8] [nM] | IC50 [3, 9] [nM] | IC50 ([3]; RPM12650, read-out: Cell Viatility (IC50)) [nM]
1 | Cc1sc2c(c1C)C(c1ccc(Cl)cc1)=N[C@@H](CC(=O)Nc1ccc(OCCCC#Cc3ccc4c(=O)n(C5CCC(=O)NC5=O)ncc4c3)cc1)c1nnc(C)n1-2 (stereo partly drawn) [ICT-0001409, 2-[(9S)-7-(4-chlorophenyl)-4,5,13-trimethyl-3-thia-1,8,11,12-tetraazatricyclo[8.3.0.0^2,^6]trideca-2(6),4,7,10,12-pentaene-9-yl]-N-[4-({5-[2-(2,6-dioxopiperidin-3-yl)-1-oxo-1,2-dihydroptalazine-6-yl]pent-4-phosphorus-1-yl}oxy)phenyl]acetamide] | > 1000 | > 1000 | – | – | – | – | – | –
2 | Cc1sc2c(c1C)C(c1ccc(Cl)cc1)=N[C@@H](CC(=O)Nc1ccc(OCCCCCc3ccc4c(=O)n(C5CCC(=O)NC5=O)ncc4c3)cc1)c1nnc(C)n1-2 (stereo partly drawn) [ICT-0001411, 2-[(9S)-7-(4-chlorophenyl)-4,5,13-trimethyl-3-thia-1,8,11,12-tetraazatricyclo[8.3.0.0^2,^6]trideca-2(6),4,7,10,12-pentaene-9-yl]-N-[4-({5-[2-(2,6-dioxopiperidin-3-yl)-1-oxo-1,2-dihydroptalazine-6-yl]pentyl}oxy)phenyl)acetamide] | > 1000 | > 1000 | – | – | – | – | – | –
3 | Cc1sc2c(c1C)C(c1ccc(Cl)cc1)=N[C@@H](CC(=O)Nc1ccc(OC[C@@H]3CN(c4ccc5c(=O)n(C6CCC(=O)NC6=O)nc(C)c5c4)CCO3)cc1)c1nnc(C)n1-2 (stereo partly drawn) [ICT-0001430, 2-[(9S)-7-(4-chlorophenyl)-4,5,13-trimethyl-3-thia-1,8,11,12-tetraazatricyclo[8.3.0.0^2,^6]trideca-2(6),4,7,10,12-pentaene-9-yl]-N-(4-{[(2S)-4-[2-(2,6-dioxopiperidin-3-yl)-4-methyl-1-oxo-1,2-dihydroptalazine-6-yl]morpholine-2-yl]methoxy}phenyl)acetamide] | < 100 | < 100 | 100 to 1000 | – | – | – | – | –
4 | Cc1sc2c(c1C)C(c1ccc(Cl)cc1)=N[C@@H](CC(=O)Nc1ccc(CN3CCN(c4ccc(NC5CCC(=O)NC5=O)cc4F)CC3)cc1)c1nnc(C)n1-2 (stereo partly drawn) [ICT-0001441, 2-[(9S)-7-(4-chlorophenyl)-4,5,13-trimethyl-3-thia-1,8,11,12-tetraazatricyclo[8.3.0.0^2,^6]trideca-2(6),4,7,10,12-pentaene-9-yl]-N-{4-[(4-{4-[(2,6-dioxopiperidine-3-yl)amino]-2-fluorophenyl}piperazine-1-yl)methyl]phenyl}acetamide] | – | < 100 | < 100 | < 100 | – | – | – | –
5 | CC[C@@H]1c2nnc(C)n2-c2cnc(Nc3ccc(C(=O)NCCCC#Cc4ccc5c(=O)n(C6CCC(=O)NC6=O)ncc5c4)cc3OC)nc2N1CC1CCCCC1 (stereo partly drawn) [ICT-0001515, 4-(((R)-5-(cyclohexylmethyl)-4-ethyl-1-methyl-4,5-dihydro-[1,2,4]triazolo[4,3-f]pteridine-7-yl)amino)-N-(5-(2-(2,6-dioxopiperidin-3-yl)-1-oxo-1,2-dihydroptalazine-6-yl)pent-4-phosphorus-1-yl)-3-methoxybenzamide] | – | – | – | – | > 1000 | > 1000 | > 1000 | –
6 | CC[C@@H]1c2nnc(C)n2-c2cnc(Nc3ccc(C(=O)N4CCN(CC5CCN(c6ccc7c(=O)n(C8CCC(=O)NC8=O)nc(C)c7c6)CC5)CC4)cc3OC)nc2N1CC1CCCCC1 (stereo partly drawn) [ICT-0001516, 3-(6-(4-((4-(4-(((R)-5-(cyclohexylmethyl)-4-ethyl-1-methyl-4,5-dihydro-[1,2,4]triazolo[4,3-f]pteridine-7-yl)amino)3-methoxybenzoyl)piperazine-1-il)methyl)piperidine-1-yl)4-methyl-1-oxopthalazine-2(1H)-yl)piperidine-2,6-dione] | – | – | – | – | < 100 | < 100 | > 1000 | –
7 | CC[C@@H]1c2nnc(C)n2-c2cnc(Nc3ccc(C(=O)N4CCN(c5ccc(NC6CCC(=O)NC6=O)cc5F)CC4)cc3OC)nc2N1CC1CCCCC1 (stereo partly shown) [ICT-0001517] | – | – | – | – | < 100 | < 100 | < 100 | –
8 | CC[C@@H]1c2nnc(C)n2-c2cnc(Nc3ccc(C(=O)N4CCN(CC5CCN(c6ccc(NC7CCC(=O)NC7=O)cc6F)CC5)CC4)cc3OC)nc2N1CC1CCCCC1 (stereo partly drawn) [ICT-0001518, 3-((4-(4-((4-(4-(((R)-5-(cyclohexylmethyl)-4-ethyl-1-methyl-4,5-dihydro-[1,2,4]triazolo[4,3-f]pteridine-7-yl)amino)3-methoxybenzoyl)piperazine-1-il)methyl)piperidine-1-yl)-3-fluorophenyl)amino)piperidine-2,6-dione] | – | – | – | – | < 100 | < 100 | 100 to 1000 | –
9 | CC[C@@H]1c2nnc(C)n2-c2cnc(Nc3ccc(C(=O)NC4CCN(CCCC#Cc5ccc6c(=O)n(C7CCC(=O)NC7=O)ncc6c5)CC4)cc3OC)nc2N1CC1CCCCC1 (stereo partly drawn) [ICT-0001534, 4-(((R)-5-(cyclohexylmethyl)-4-ethyl-1-methyl-4,5-dihydro-[1,2,4]triazolo[4,3-f]pteridine-7-yl)amino)N-(1-(5-(2-(2,6-dioxopiperidin-3-yl)1-oxo-1,2-dihydroptalazine-6-yl)pent-4-phosphorus-1-yl)piperidine-4-yl)-3-methoxybenzamide] | – | – | – | – | > 1000 | > 1000 | > 1000 | –
10 | CC[C@@H]1c2nnc(C)n2-c2cnc(Nc3ccc(C(=O)N4CCO[C@@H](CN5CCN(c6ccc7c(=O)n(C8CCC(=O)NC8=O)nc(C)c7c6)CC5)C4)cc3OC)nc2N1CC1CCCCC1 (stereo partly drawn) [ICT-0001548, 3-(6-(4-(((S)-4-(4-(((R)-5-(cyclohexylmethyl)-4-ethyl-1-methyl-4,5-dihydro-[1,2,4]triazolo[4,3-f]pteridine-7-yl)amino)3-methoxybenzoyl)morpholine-2-il)methyl)piperazine-1-yl)4-methyl-1-oxopthalazine-2(1H)-yl)piperidine-2,6-dione] | – | – | – | – | < 100 | < 100 | – | > 1000
11 | CC[C@@H]1c2nnc(C)n2-c2cnc(Nc3ccc(C(=O)NCCOCCOCCOCCNc4cccc5cnn(C6CCC(=O)NC6=O)c(=O)c45)cc3OC)nc2N1CC1CCCCC1 (stereo partly shown) [ICT-0001549] | – | – | – | – | > 1000 | < 100 | 100 to 1000 | –
12 | CC[C@@H]1c2nnc(C)n2-c2cnc(Nc3ccc(C(=O)N4CCC(CN5CCN(c6ccc7c(=O)n(C8CCC(=O)NC8=O)nc(C)c7c6)CC5)CC4)cc3OC)nc2N1CC1CCCCC1 (stereo partly drawn) [ICT-0001553, 3-(6-(4-(1-(4-(((R)-5-(cyclohexylmethyl)-4-ethyl-1-methyl-4,5-dihydro-[1,2,4]triazolo[4,3-f]pteridine-7-yl)amino)3-methoxybenzoyl)piperidine-4-yl)piperazine-1-yl)4-methyl-1-oxopthalazine-2(1H)-yl)piperidine-2,6-dione] | – | – | – | – | 100 to 1000 | < 100 | > 1000 | –
13 | CC[C@H]1c2nnc(C)n2-c2cnc(Nc3ccc(C(=O)N4CCN(c5ccc(NC6CCC(=O)N(C)C6=O)cc5F)CC4)c(OC)c3)nc2N1CC1CCCCC1 (stereo partly drawn) [ICT-0001554, 3-({4-[4-(4-{[(4S)-5-(cyclohexylmethyl)-4-ethyl-1-methyl-4H,5H-[1,2,4]triazolo[4,3-f]pteridine-7-yl]amino}-2-methoxybenzoyl)piperazine-1-yl]-3-fluorophenyl}amino)-1-methylpiperidine-2,6-dione] | – | – | – | – | > 1000 | > 1000 | > 1000 | –
14 | CC[C@@H]1c2nnc(C)n2-c2cnc(Nc3ccc(C(=O)N4CCC(N5CCN(c6ccc7c(=O)n(C8CCC(=O)NC8=O)nc(C)c7c6)CC5)CC4)cc3OC)nc2N1CC1CCCCC1 (stereo partly drawn) [ICT-0001556, 3-(6-(4-(1-(4-(((R)-5-(cyclohexylmethyl)-4-ethyl-1-methyl-4,5-dihydro-[1,2,4]triazolo[4,3-f]pteridine-7-yl)amino)3-methoxybenzoyl)piperidine-4-yl)piperazine-1-yl)4-methyl-1-oxopthalazine-2(1H)-yl)piperidine-2,6-dione] | – | – | – | – | < 100 | < 100 | > 1000 | –
15 | CC[C@@H]1c2nnc(C)n2-c2cnc(Nc3ccc(C(=O)N4CC(CN5CCN(c6ccc7c(=O)n(C8CCC(=O)NC8=O)nc(C)c7c6)CC5)C4)cc3OC)nc2N1CC1CCCCC1 (stereo partly drawn) [ICT-0001557, 3-(6-(4-((1-(4-(((R)-5-(cyclohexylmethyl)-4-ethyl-1-methyl-4,5-dihydro-[1,2,4]triazolo[4,3-f]pteridine-7-yl)amino)3-methoxybenzoyl)azetidine-3-yl)methyl)piperazine-1-yl)4-methyl-1-oxopthalazine-2(1H)-yl)piperidine-2,6-dione] | – | – | – | – | > 1000 | < 100 | > 1000 | –
